Laboratory results as given in US20230339981A1, “KRAS G12D MODULATING COMPOUNDS” (priority 2022, published 2023).

Columns and labels:
GP2D (KRAS G12D) cells = assay: 2D cell viability assay (CellTiter-Glo); assay type: cell-based; conditions: GP2d, 96 h, 4 days
Outline: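 GP2D (KRAS G12D) cells, 1000/well in RPMI + 10% FBS, were plated onto compound (1:3 DMSO series) and grown 4 days at 37 °C, 5% CO2 in 2D. CellTiter-Glo luminescence was read; EC50 is the concentration giving 50% signal decrease, from sigmoidal fit.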

AsPC-1 (KRAS G12D) cells = assay: 3D cell viability assay (spheroids, CellTiter-Glo 3D); assay type: cell-based; conditions: Homo sapiens, ASPC1, 96 h, AsPC-1 cells, 3D spheroids, 4 days
Experimental: Example C. 3D Cell Viability Assay
Compounds were tested in a 384-well format for their ability to inhibit the viability of AsPC-1 (KRAS G12D) cells in 3D assays. On day 0, 1000 cells/well (80 μL volume per well) in DMEM with 10% FBS, and Penicillin-Streptomycin-Glutamine were plated in 384-well Ultra-Low Attachment Spheroid Microplates (Corning, Catalog #3830) on the BioTEK EL406 liquid dispenser with a 5 μL dispensing cassette (BioTek 7170011). The plates were incubated at 37° C., 5% CO2 for 3 days to allow spheroid formation. On day 3, compounds were serially diluted (1:3) in DMSO. The Biomek FX was used to add 400 nL of test molecule per well. The plates were incubated at 37° C., 5% CO2 for 4 days before addition of CellTiter-Glo 3D (Promega, Catalog #9683) reagent and measurement of luminescence signal. EC50 values were defined as the compound concentration that causes a 50% decrease in luminescence signal and were calculated using a sigmoidal dose-response model to generate curve fits.

GDP-loaded KRAS G12D = GDP-loaded KRAS G12D (Homo sapiens (Human), UniProt P01116, G12D); assay: KRAS G12D (GDP) biochemical assay (TR-FRET probe displacement); assay type: binding; conditions: 2 hours
Sequence of GDP-loaded KRAS G12D (P01116-2 other isoform, or with tags, fused parts or gaps G12D): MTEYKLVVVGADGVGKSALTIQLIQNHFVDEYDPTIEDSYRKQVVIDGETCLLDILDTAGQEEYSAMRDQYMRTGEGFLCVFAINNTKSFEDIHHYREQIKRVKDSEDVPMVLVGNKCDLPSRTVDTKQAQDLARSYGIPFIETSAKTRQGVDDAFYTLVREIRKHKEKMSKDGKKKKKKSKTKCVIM
Outline: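 Compound pre-incubated 30 min with GDP-loaded KRAS G12D in 50 mM Hepes pH 7.4, 150 mM NaCl, 5 mM MgCl2, 0.005% Tween-20, then Eu-streptavidin and TR-FRET probe added. After 2 h at room temperature, TR-FRET ratio read; IC50 is 50% ratio decrease, sigmoidal fit.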

Row | SMILES | EC50 (GP2D (KRAS G12D) cells) [nM] | EC50 (AsPC-1 (KRAS G12D) cells) [nM] | IC50 (GDP-loaded KRAS G12D) [nM]
1 | Oc1cc(-c2nc3c4c(nc(OC[C@@]56CCCN5C[C@H](F)C6)nc4c2F)N2C[C@H]4CC[C@H](N4)[C@H]2CO3)c2c(F)c(F)ccc2c1 [Example 1, 5,6-difluoro-4-((5aS,6S,9R)-1-fluoro-12-(((2R,7aS)-2-fluorotetrahydro-1H-pyrrolizin-7a(5H)-yl)methoxy)-5a,6,7,8,9,10-hexahydro-5H-4-oxa-3,10a,11,13,14-pentaaza-6,9-methanonaphtho[1,8-ab]heptalen-2-yl)naphthalen-2-ol] | 19 | 170 | 0.5
2 | C#Cc1c(F)ccc2cc(O)cc(-c3nc4c5c(nc(OC[C@@]67CCCN6C[C@H](F)C7)nc5c3F)N3C[C@H]5CC[C@H](N5)[C@H]3CO4)c12 [Example 2, 5-ethynyl-6-fluoro-4-((5aS,6S,9R)-1-fluoro-12-(((2R,7aS)-2-fluorotetrahydro-1H-pyrrolizin-7a(5H)-yl)methoxy)-5a,6,7,8,9,1O-hexahydro-5H-4-oxa-3,10a,11,13,14-pentaaza-6,9-methanonaphtho[1,8-ab]heptalen-2-yl)naphthalen-2-ol] | 6 | 42 | 0.2
3 | Oc1cc(-c2nc3c4c(nc(OC[C@@]56CCCN5C[C@H](F)C6)nc4c2F)N2C[C@H]4CC[C@H](N4)[C@H]2CO3)c2c(OC(F)(F)F)cccc2c1 [Example 3, 4-((5aS,6S,9R)-1-fluoro-12-(((2R,7aS)-2-fluorotetrahydro-1H-pyrrolizin-7a(5H)-yl)methoxy)-5a,6,7,8,9,10-hexahydro-5H-4-oxa-3,10a,11,13,14-pentaaza-6,9-methanonaphtho[1,8-ab]heptalen-2-yl)-5-(trifluoromethoxy)naphthalen-2-ol] | 24 | 160 | 2
4 | C#Cc1c(F)ccc2cccc(-c3nc4c5c(nc(OC[C@@]67CCCN6C[C@H](F)C7)nc5c3F)N3C[C@H]5CC[C@H](N5)[C@H]3CO4)c12 [Example 4, (5aS,6S,9R)-2-(8-ethynyl-7-fluoronaphthalen-1-yl)-1-fluoro-12-(((2R,7aS)-2-fluorotetrahydro-1H-pyrrolizin-7a(5H)-yl)methoxy)-5a,6,7,8,9,10-hexahydro-5H-4-oxa-3,10a,11,13,14-pentaaza-6,9-methanonaphtho[1,8-ab]heptalene] | 45 | 92 | 4
5 | Oc1cc(-c2nc3c4c(nc(OC[C@@]56CCCN5C[C@H](F)C6)nc4c2F)N2C[C@H]4CC[C@H](N4)[C@H]2CO3)c2c(Cl)c(F)ccc2c1 [Example 9, 5-chloro-6-fluoro-4-((5aS,6S,9R)-1-fluoro-12-(((2R,7aS)-2-fluorotetrahydro-1H-pyrrolizin-7a(5H)-yl)methoxy)-5a,6,7,8,9,10-hexahydro-5H-4-oxa-3,10a,11,13,14-pentaaza-6,9-methanonaphtho[1,8-ab]heptalen-2-yl)naphthalen-2-ol] | 20 | 77 | 0.5
6 | C#Cc1c(F)ccc2cc(O)cc(-c3nc4c5c(nc(OC[C@]67CC(=C)CN6C[C@H](F)C7)nc5c3F)N3C[C@H]5CC[C@H](N5)[C@H]3CO4)c12 [Example 13, 5-ethynyl-6-fluoro-4-((5aS,6S,9R)-1-fluoro-12-(((2R,7aR)-2-fluoro-6-methylenetetrahydro-1H-pyrrolizin-7a(5H)-yl)methoxy)-5a,6,7,8,9,10-hexahydro-5H-4-oxa-3,10a,11,13,14-pentaaza-6,9-methanonaphtho[1,8-ab]heptalen-2-yl)naphthalen-2-ol] | 2 | 17 | 0.4
7 | Oc1cc(-c2nc3c4c(nc(OC[C@@]56CCCN5C[C@H](F)C6)nc4c2F)N2C[C@H]4CC[C@H](N4)[C@H]2CO3)c2c(Cl)cccc2c1 [Example 17, 5-chloro-4-((5aS,6S,9R)-1-fluoro-12-(((2R,7aS)-2-fluorotetrahydro-1H-pyrrolizin-7a(5H)-yl)methoxy)-5a,6,7,8,9,10-hexahydro-5H-4-oxa-3,10a,11,13,14-pentaaza-6,9-methanonaphtho[1,8-ab]heptalen-2-yl)naphthalen-2-ol] | 49 | 180 | 0.4
8 | Oc1cc(-c2nc3c4c(nc(OC[C@@]56CCCN5C[C@H](F)C6)nc4c2F)N2C[C@H]4CC[C@H](N4)[C@H]2CO3)c2ccccc2c1 [Example 20, 4-((5aS,6S,9R)-1-fluoro-12-(((2R,7aS)-2-fluorotetrahydro-1H-pyrrolizin-7a(5H)-yl)methoxy)-5a,6,7,8,9,10-hexahydro-5H-4-oxa-3,10a,11,13,14-pentaaza-6,9-methanonaphtho[1,8-ab]heptalen-2-yl)naphthalen-2-ol] | 210 | > 1000 | 7
9 | C#Cc1c(F)ccc2cc(O)cc(-c3nc4c5c(nc(OC[C@@]67CCCN6C[C@H](F)C7)nc5c3F)N3C[C@H]5CC[C@H](N5)[C@H]3CC4)c12 [Example 22, 5-ethynyl-6-fluoro-4-((5aR,6S,9R)-1-fluoro-12-(((2R,7aS)-2-fluorotetrahydro-1H-pyrrolizin-7a(5H)-yl)methoxy)-4,5,5a,6,7,8,9,10-octahydro-3,10a,11,13,14-pentaaza-6,9-methanonaphtho[1,8-ab]heptalen-2-yl)naphthalen-2-ol] | 0.6 | 2 | 0.1
10 | C#Cc1c(F)ccc2cccc(-c3nc4c5c(nc(OC[C@@]67CCCN6C[C@H](F)C7)nc5c3F)N3C[C@H]5CC[C@H](N5)[C@H]3CC4)c12 [Example 23, (5aR,6S,9R)-2-(8-ethynyl-7-fluoronaphthalen-1-yl)-1-fluoro-12-(((2R,7aS)-2-fluorotetrahydro-1H-pyrrolizin-7a(5H)-yl)methoxy)-4,5,5a,6,7,8,9,10-octahydro-3,10a,11,13,14-pentaaza-6,9-methanonaphtho[1,8-ab]heptalene] | 9 | 31 | 1
11 | Oc1cc(-c2nc3c4c(nc(OC[C@@]56CCCN5C[C@H](F)C6)nc4c2F)N2C[C@H]4CC[C@H](N4)[C@H]2CC3)c2ccccc2c1 [Example 24, 4-((5aR,6S,9R)-1-fluoro-12-(((2R,7aS)-2-fluorotetrahydro-1H-pyrrolizin-7a(5H)-yl)methoxy)-4,5,5a,6,7,8,9,10-octahydro-3,10a,11,13,14-pentaaza-6,9-methanonaphtho[1,8-ab]heptalen-2-yl)naphthalen-2-ol] | 17 | 190 | 1
12 | Oc1cc(-c2nc3c4c(nc(OC[C@@]56CCCN5C[C@H](F)C6)nc4c2F)N2C[C@H]4CC[C@H](N4)[C@H]2CC3)c2c(F)c(F)ccc2c1 [Example 27, 5,6-difluoro-4-((5aR,6S,9R)-1-fluoro-12-(((2R,7aS)-2-fluorotetrahydro-1H-pyrrolizin-7a(5H)-yl)methoxy)-4,5,5a,6,7,8,9,10-octahydro-3,10a,11,13,14-pentaaza-6,9-methanonaphtho[1,8-ab]heptalen-2-yl)naphthalen-2-ol] | 4 | 29 | 0.7
13 | C#Cc1c(F)c(F)cc2cc(O)cc(-c3nc4c5c(nc(OC[C@@]67CCCN6C[C@H](F)C7)nc5c3F)N3C[C@H]5CC[C@H](N5)[C@H]3CO4)c12 [Example 30, 5-ethynyl-6,7-difluoro-4-((5aS,6S,9R)-1-fluoro-12-(((2R,7aS)-2-fluorotetrahydro-1H-pyrrolizin-7a(5H)-yl)methoxy)-5a,6,7,8,9,10-hexahydro-5H-4-oxa-3,10a,11,13,14-pentaaza-6,9-methanonaphtho[1,8-ab]heptalen-2-yl)naphthalen-2-ol] | 11 | 260 | 0.2
